PubChem BioAssay (NCI)
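Step 1: Grow cells in 96-well plates. Step 2: Expose to compound for 48 hours at 5 concentrations. Step 3: Interpolate endpoints linearly; if unreached, use highest concentration. Abbreviation: GI50, concentration required for 50% inhibition of growth. The concentration for full growth arrest is given as TGI.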

Legend:
Assay in all cases: growth of human tumour cells (NCI), 48 h
OVCAR-5 ovarian = test system: OVCAR-5 ovarian
SN12C renal = test system: SN12C renal
MALME-3M melanoma = test system: MALME-3M melanoma
NCI-H226 lung = test system: NCI-H226 lung
A549 NSCLC = test system: A549 NSCLC
OVCAR-8 ovarian = test system: OVCAR-8 ovarian
IGROV1 ovarian = test system: IGROV1 ovarian
RXF 393 renal = test system: RXF 393 renal
NCI-H522 lung = test system: NCI-H522 lung
LOX IMVI melanoma = test system: LOX IMVI melanoma

SMILES: Cc1cc(Cl)ccc1NC(=O)NC(C)(C)COC(=O)Nc1cccc(Cl)c1
- GI50 (OVCAR-5 ovarian): 8.1 µM
- TGI (OVCAR-5 ovarian): > 100 µM
- GI50 (SN12C renal): 7.14 µM
- TGI (SN12C renal): > 100 µM
- GI50 (MALME-3M melanoma): 9.6 µM
- TGI (MALME-3M melanoma): 50.3 µM
- GI50 (NCI-H226 lung): 13.6 µM
- TGI (NCI-H226 lung): > 100 µM
- GI50 (A549 NSCLC): 5.05 µM
- TGI (A549 NSCLC): 66.4 µM
- GI50 (OVCAR-8 ovarian): 5.42 µM
- TGI (OVCAR-8 ovarian): 64.8 µM
- GI50 (IGROV1 ovarian): 11.1 µM
- TGI (IGROV1 ovarian): > 100 µM
- GI50 (RXF 393 renal): 17.5 µM
- TGI (RXF 393 renal): 78.6 µM

SMILES: N=C1C(c2nc(-c3ccc(Br)cc3)cs2)=C(O)CN1CC1CCCO1 (stereo unspecified)
- GI50 (OVCAR-5 ovarian): > 100 µM
- TGI (OVCAR-5 ovarian): > 100 µM
- GI50 (SN12C renal): > 100 µM
- TGI (SN12C renal): > 100 µM
- GI50 (MALME-3M melanoma): > 100 µM
- TGI (MALME-3M melanoma): > 100 µM
- GI50 (NCI-H226 lung): > 100 µM
- TGI (NCI-H226 lung): > 100 µM
- GI50 (A549 NSCLC): > 100 µM
- TGI (A549 NSCLC): > 100 µM
- GI50 (RXF 393 renal): > 100 µM
- TGI (RXF 393 renal): > 100 µM

SMILES: O=C(O)c1oc2cccc3c2c1CCC3
- TGI (OVCAR-5 ovarian): > 100 µM
- TGI (SN12C renal): > 100 µM
- TGI (MALME-3M melanoma): > 100 µM
- TGI (NCI-H522 lung): > 100 µM
- TGI (A549 NSCLC): > 100 µM
- TGI (OVCAR-8 ovarian): > 100 µM
- TGI (LOX IMVI melanoma): > 100 µM
- TGI (IGROV1 ovarian): > 100 µM
- TGI (RXF 393 renal): > 100 µM

SMILES: CC(=O)OCC(OC(C)=O)C(OC(C)=O)C(OC(C)=O)C(=O)CNn1c(-c2ccccc2Cl)nc2ccc(Br)cc2c1=O (stereo unspecified)
- TGI (OVCAR-5 ovarian): > 100 µM
- TGI (SN12C renal): > 100 µM
- TGI (MALME-3M melanoma): > 100 µM
- TGI (NCI-H522 lung): > 100 µM
- TGI (A549 NSCLC): > 100 µM
- TGI (OVCAR-8 ovarian): > 100 µM
- TGI (LOX IMVI melanoma): > 100 µM
- TGI (RXF 393 renal): > 100 µM

SMILES: O=C(O)Cc1cc(=O)[nH]c2c1C(=O)CCC2
- TGI (OVCAR-5 ovarian): > 100 µM
- TGI (SN12C renal): > 100 µM
- TGI (MALME-3M melanoma): > 100 µM
- TGI (NCI-H522 lung): > 100 µM
- TGI (NCI-H226 lung): > 100 µM
- TGI (OVCAR-8 ovarian): > 100 µM
- TGI (IGROV1 ovarian): > 100 µM
- TGI (RXF 393 renal): > 100 µM

SMILES: CC1=NN(C(=O)c2cc(Cl)cc([N+](=O)[O-])c2)C(=O)C1N=Nc1ccccc1C(=O)O (stereo unspecified)
- TGI (OVCAR-5 ovarian): > 100 µM
- TGI (SN12C renal): > 100 µM
- TGI (MALME-3M melanoma): > 100 µM
- TGI (NCI-H522 lung): > 100 µM
- TGI (NCI-H226 lung): > 100 µM
- TGI (A549 NSCLC): > 100 µM
- TGI (OVCAR-8 ovarian): > 100 µM
- TGI (IGROV1 ovarian): > 100 µM
- TGI (RXF 393 renal): > 100 µM

SMILES: COc1ccc(S(=O)(=O)n2c3ccccc3n3ncc(-c4nnc(C)o4)c23)cc1
- GI50 (OVCAR-5 ovarian): 2.1 µM
- TGI (OVCAR-5 ovarian): > 100 µM
- GI50 (SN12C renal): 0.73 µM
- TGI (SN12C renal): 39.6 µM
- GI50 (NCI-H522 lung): 0.42 µM
- TGI (NCI-H522 lung): > 73.6 µM
- GI50 (NCI-H226 lung): 10.8 µM
- TGI (NCI-H226 lung): > 69.2 µM
- GI50 (A549 NSCLC): 0.768 µM
- TGI (A549 NSCLC): > 100 µM
- GI50 (OVCAR-8 ovarian): 1.27 µM
- TGI (OVCAR-8 ovarian): > 100 µM
- GI50 (LOX IMVI melanoma): 0.561 µM
- TGI (LOX IMVI melanoma): 26.1 µM
- GI50 (IGROV1 ovarian): 0.634 µM
- TGI (IGROV1 ovarian): > 67.1 µM
- GI50 (RXF 393 renal): 0.319 µM
- TGI (RXF 393 renal): 3.97 µM

SMILES: C=C1C(=O)O[C@H]2[C@H]1CC/C(COC(=O)/C=C/c1c[nH]c3ccccc13)=C\CC[C@@]1(C)O[C@@H]21
- GI50 (OVCAR-5 ovarian): 0.315 µM
- TGI (OVCAR-5 ovarian): 1.38 µM
- GI50 (SN12C renal): 0.197 µM
- TGI (SN12C renal): 0.478 µM
- GI50 (MALME-3M melanoma): 0.283 µM
- TGI (MALME-3M melanoma): 0.828 µM
- GI50 (NCI-H522 lung): 0.186 µM
- TGI (NCI-H522 lung): 0.371 µM
- GI50 (NCI-H226 lung): 0.23 µM
- TGI (NCI-H226 lung): 0.702 µM
- GI50 (A549 NSCLC): 1.27 µM
- TGI (A549 NSCLC): 2.71 µM
- GI50 (OVCAR-8 ovarian): 0.191 µM
- TGI (OVCAR-8 ovarian): 0.421 µM
- GI50 (IGROV1 ovarian): 0.225 µM
- TGI (IGROV1 ovarian): 0.484 µM
- GI50 (RXF 393 renal): 0.172 µM
- TGI (RXF 393 renal): 0.331 µM

SMILES: O[C@H](CN1CC1)[C@@H](O)CN1CC1
- GI50 (OVCAR-5 ovarian): 11.2 µM
- TGI (OVCAR-5 ovarian): 48 µM
- GI50 (SN12C renal): 1.86 µM
- TGI (SN12C renal): > 100 µM
- GI50 (NCI-H522 lung): 8.2 µM
- TGI (NCI-H522 lung): 83.3 µM
- GI50 (NCI-H226 lung): 3.17 µM
- TGI (NCI-H226 lung): 26 µM
- GI50 (A549 NSCLC): 7.28 µM
- TGI (A549 NSCLC): > 100 µM
- GI50 (OVCAR-8 ovarian): 3.75 µM
- TGI (OVCAR-8 ovarian): > 100 µM
- GI50 (LOX IMVI melanoma): 2.81 µM
- TGI (LOX IMVI melanoma): 28.4 µM
- GI50 (IGROV1 ovarian): 10.7 µM
- TGI (IGROV1 ovarian): 33.3 µM
- GI50 (RXF 393 renal): 7.35 µM
- TGI (RXF 393 renal): 26.1 µM
